Values quoted from earlier work, collected in patent publication US5122371A (priority 1991, dated 1992).

How the values were obtained:
[1] = tested on: Na+ K+-ATPase enzyme; conditions: known property of cardiac glycosides
[2] = in vivo

Compound	Effect on Na+ K+-ATPase enzyme activity [1]	half-life [2] [h]
C[C@H]1O[C@@H](O[C@H]2[C@@H](O)C[C@H](O[C@H]3[C@@H](O)C[C@H](O[C@H]4CC[C@@]5(C)[C@H](CC[C@@H]6[C@@H]5C[C@@H](O)[C@]5(C)[C@@H](C7=CC(=O)OC7)CC[C@]65O)C4)O[C@@H]3C)O[C@@H]2C)C[C@H](O)[C@@H]1O [digoxin]	inhibit	–
C[C@@H]1O[C@@H](O[C@H]2C[C@@H](O)[C@]3(CO)[C@H]4[C@H](O)C[C@]5(C)[C@@H](C6=CC(=O)OC6)CC[C@]5(O)[C@@H]4CC[C@]3(O)C2)[C@H](O)[C@H](O)[C@H]1O [ouabain]	inhibit	21
digitalis	inhibit	–
